Assays:
Type in all cases: cell-based
[1] = test system: 3T3 cells; assay: MTT cell proliferation assay, 3T3 cells; conditions: NIH3T3; 3T3 fibroblast cells (Swiss mouse embryo); incubation approximately 64-72 hours
Protocol: (§1) The MTT cell proliferation assay was used to study the cytotoxic properties of the compounds. The assay was performed according to the method described by Roche Molecular Biochemicals, with minor modifications. The assay is based on the cleavage of the tetrazolium salt, MTT, in the presence of an electron-coupling reagent. The water-insoluble formazan salt produced must be solubilized in an additional step. Cells grown in a 96-well tissue culture plate were incubated with the MTT solution for approximately 4 hours. After this incubation period, a water-insoluble formazan dye formed. After solubilization, the formazan dye was quantitated using a scanning multi-well spectrophotometer (ELISA reader). […] The cells were seeded at 5,000-10,000 cells in each well of 96-well plate in 100 μL of fresh culture medium and were allowed to attach overnight. The stock solutions of the compounds were diluted in 100 μL cell culture medium to obtain eight concentrations of each test compound, ranging from 1 nM to 30 μM. […] All optical densities were measured at 490 nm using a Vmax Kinetic Microplate Reader (Molecular Devices). In most cases, the assay was performed in duplicate and the results were presented as a mean percent inhibition to the negative control±SE. The following formula was used to calculate the percent of inhibition: Inhibition (%)=(1−(ODo/OD))×100.
(§2) The compounds were tested against MS751, Z138 and 3T3 cells. The MS751 cell line is derived from a metastasis to lymph node of human cervix from a patient diagnosed with squameous cell carcinoma of the cervix. The Z138 cell line is a mature B-cell acute lymphoblastic leukemia cell line derived from a patient with chronic lumphocytic leukemia. 3T3 cells are standard fibroblast cells; they were originally isolated from Swiss mouse embryo tissue.

[2] = test system: MS751 cells; assay: MTT cell proliferation assay, MS751 cells; conditions: MS751 cells (human cervix squamous cell carcinoma metastasis); incubation approximately 64-72 hours; read-out: MTT Assay IC50 MS 751
Protocol: as §1, §2

[3] = test system: Z138 cells; assay: MTT cell proliferation assay, Z138 cells; conditions: Homo sapiens, Z-138; Z138 cells (mantle cell lymphoma line); incubation approximately 64-72 hours
Protocol: as §1, §2

SMILES | IC50 [1] | IC50 [2] | IC50 [3]
Nc1ccc(/C=C/C(=O)NCc2cc3cc(-c4ccc(C(=O)N5CC[C@H](F)C5)cc4)cc(C(F)(F)F)c3s2)cn1 [compound 525, (S,E)-3-(6-aminopyridin-3-yl)-N-((5-(4-(3-fluoropyrrolidine-1-carbonyl)phenyl)-7-(trifluoromethyl)benzo[b]thiophen-2-yl)methyl)acrylamide] | > 10 µM | 1 to 5 µM | 1 to 5 µM
Nc1ccc(/C=C/C(=O)NCc2cc3cc(-c4ccc(C(=O)N5CCOCC5)cn4)cc(C(F)(F)F)c3s2)cn1 [compound 506, (E)-3-(6-aminopyridin-3-yl)-N-((5-(5-(morpholine-4-carbonyl)pyridin-2-yl)-7-(trifluoromethyl)benzo[b]thiophen-2-yl)methyl)acrylamide] | > 10 µM | 1 to 5 µM | 1 to 5 µM
Nc1ccc(/C=C/C(=O)NCc2nc3cc(-c4ccc(C(=O)N5CCC(F)(F)CC5)cn4)cc(C(F)(F)F)c3[nH]2)cn1 [compound 530, (E)-3-(6-aminopyridin-3-yl)-N-((5-(5-(4,4-difluoropiperidine-1-carbonyl)pyridin-2-yl)-7-(trifluoromethyl)-1H-benzo[d]imidazol-2-yl)methyl)acrylamide] | > 10 µM | > 10 µM | > 10 µM
CC1(C)CN(C(=O)c2ccc(-c3cc(C(F)(F)F)c4sc(CNC(=O)/C=C/c5ccc(N)nc5)cc4c3)cc2)CCO1 [compound 526, (E)-3-(6-aminopyridin-3-yl)-N-((5-(4-(2,2-dimethylmorpholine-4-carbonyl)phenyl)-7-(trifluoromethyl)benzo[b]thiophen-2-yl)methyl)acrylamide] | > 10 µM | 1 to 5 µM | < 1 µM
CC1(O)CCN(C(=O)c2ccc(-c3cc(C(F)(F)F)c4sc(CNC(=O)/C=C/c5ccc(N)nc5)cc4c3)cc2)CC1 [compound 528, (E)-3-(6-aminopyridin-3-yl)-N-((5-(4-(4-hydroxy-4-methylpiperidine-1-carbonyl)phenyl)-7-(trifluoromethyl)benzo[b]thiophen-2-yl)methyl)acrylamide] | > 10 µM | 1 to 5 µM | < 1 µM
Nc1ccc(/C=C/C(=O)NCc2cc3cc(-c4ccc(C(=O)N5CCC(F)(F)CC5)cn4)cc(C(F)(F)F)c3s2)cn1 [compound 503, (E)-3-(6-aminopyridin-3-yl)-N-((5-(5-(4,4-difluoropiperidine-1-carbonyl)pyridin-2-yl)-7-(trifluoromethyl)benzo[b]thiophen-2-yl)methyl)acrylamide] | > 10 µM | 1 to 5 µM | 1 to 5 µM
CC1(F)CCN(C(=O)c2ccc(-c3cc(C(F)(F)F)c4sc(CNC(=O)/C=C/c5ccc(N)nc5)cc4c3)cc2)C1 (stereo not drawn) [compound 522, (E)-3-(6-aminopyridin-3-yl)-N-((5-(4-(3-fluoro-3-methylpyrrolidine-1-carbonyl)phenyl)-7-(trifluoromethyl)benzo[b]thiophen-2-yl)methyl)acrylamide] | > 10 µM | 5 to 10 µM | 1 to 5 µM
CC1(O)CCN(C(=O)c2ccc(-c3cc(C(F)(F)F)c4sc(CNC(=O)/C=C/c5ccc(N)nc5)cc4c3)nc2)CC1 [compound 516, (E)-3-(6-aminopyridin-3-yl)-N-((5-(5-(4-hydroxy-4-methylpiperidine-1-carbonyl)pyridin-2-yl)-7-(trifluoromethyl)benzo[b]thiophen-2-yl)methyl)acrylamide] | > 10 µM | 1 to 5 µM | < 1 µM
Nc1ccc(/C=C/C(=O)NCc2cc3cc(-c4ccc(C(=O)N5CCOCC5)cc4)cc(Cl)c3s2)cn1 [compound 500, (E)-3-(6-aminopyridin-3-yl)-N-((7-chloro-5-(4-(morpholine-4-carbonyl)phenyl)benzo[b]thiophen-2-yl)methyl)acrylamide] | > 10 µM | < 1 µM | < 1 µM
Nc1ccc(/C=C/C(=O)NCc2cc3cc(-c4ccc(C(=O)N5CCC(F)(F)CC5)cc4)cc(C(F)(F)F)c3s2)cn1 [compound 518, (E)-3-(6-aminopyridin-3-yl)-N-((5-(4-(4,4-difluoropiperidine-1-carbonyl)phenyl)-7-(trifluoromethyl)benzo[b]thiophen-2-yl)methyl)acrylamide] | > 10 µM | 1 to 5 µM | 1 to 5 µM
Nc1ccc(/C=C/C(=O)NCc2cc3cc(-c4ccc(C(=O)N5CCC(F)(F)C5)cc4)cc(C(F)(F)F)c3s2)cn1 [compound 520, (E)-3-(6-aminopyridin-3-yl)-N-((5-(4-(3,3-difluoropyrrolidine-1-carbonyl)phenyl)-7-(trifluoromethyl)benzo[b]thiophen-2-yl)methyl)acrylamide] | > 10 µM | 5 to 10 µM | 1 to 5 µM
Nc1ccc(/C=C/C(=O)NCc2nc3cc(-c4ccc(C(=O)N5CCC(F)(F)CC5)cc4)cc(C(F)(F)F)c3s2)cn1 [compound 533, (E)-3-(6-aminopyridin-3-yl)-N-((5-(4-(4,4-difluoropiperidine-1-carbonyl)phenyl)-7-(trifluoromethyl)benzo[d]thiazol-2-yl)methyl)acrylamide] | > 10 µM | < 1 µM | < 1 µM
Nc1ccc(/C=C/C(=O)NCc2cc3cc(-c4ccc(C(=O)N5CCC(O)(C(F)(F)F)CC5)cc4)cc(C(F)(F)F)c3s2)cn1 [compound 521, (E)-3-(6-aminopyridin-3-yl)-N-((5-(4-(4-hydroxy-4-(trifluoromethyl)piperidine-1-carbonyl)phenyl)-7-(trifluoromethyl)benzo[b]thiophen-2-yl)methyl)acrylamide] | > 10 µM | 1 to 5 µM | 1 to 5 µM
Nc1ccc(/C=C/C(=O)NCc2nc3cc(-c4ccc(C(=O)N5CCC(F)(F)CC5)cc4)cc(-c4ccc(F)cc4)c3s2)cn1 [compound 535, (E)-3-(6-aminopyridin-3-yl)-N-((5-(4-(4,4-difluoropiperidine-1-carbonyl)phenyl)-7-(4-fluorophenyl)benzo[d]thiazol-2-yl)methyl)acrylamide] | > 10 µM | 1 to 5 µM | 1 to 5 µM
Nc1ccc(/C=C/C(=O)NCc2cc3cc(-c4ccc(C(=O)N5CC(F)(F)C5)cc4)cc(C(F)(F)F)c3s2)cn1 [compound 524, (E)-3-(6-aminopyridin-3-yl)-N-((5-(4-(3,3-difluoroazetidine-1-carbonyl)phenyl)-7-(trifluoromethyl)benzo[b]thiophen-2-yl)methyl)acrylamide] | > 10 µM | > 10 µM | > 10 µM
CC1(C)CN(C(=O)c2ccc(-c3cc(C(F)(F)F)c4sc(CNC(=O)/C=C/c5ccc(N)nc5)cc4c3)nc2)CCO1 [compound 514, (E)-3-(6-aminopyridin-3-yl)-N-((5-(5-(2,2-dimethylmorpholine-4-carbonyl)pyridin-2-yl)-7-(trifluoromethyl)benzo[b]thiophen-2-yl)methyl)acrylamide] | > 10 µM | 1 to 5 µM | < 1 µM
Nc1ccc(/C=C/C(=O)NCc2nc3cc(-c4ccc(C(=O)N5CCC(F)(F)CC5)cn4)cc(C(F)(F)F)c3s2)cn1 [compound 532, (E)-3-(6-aminopyridin-3-yl)-N-((5-(5-(4,4-difluoropiperidine-1-carbonyl)pyridin-2-yl)-7-(trifluoromethyl)benzo[d]thiazol-2-yl)methyl)acrylamide] | > 10 µM | < 1 µM | < 1 µM

Source: patent US20170369470A1, “Cyclic Compounds and Uses Thereof” (Karyopharm Therapeutics Inc., priority 2014, published 2017)
